The record followed here is ChEMBL document CHEMBL1151577, “The inhibition of C5a receptor binding by analogs of L-156,602, a cyclic hexadepsipeptide antibiotic” (Bioorg Med Chem Lett, 1992).

Assay [1] concerns the target T1, C5a anaphylatoxin chemotactic receptor 1 (Homo sapiens) (UniProt P21730).
T1 sequence (whole entry): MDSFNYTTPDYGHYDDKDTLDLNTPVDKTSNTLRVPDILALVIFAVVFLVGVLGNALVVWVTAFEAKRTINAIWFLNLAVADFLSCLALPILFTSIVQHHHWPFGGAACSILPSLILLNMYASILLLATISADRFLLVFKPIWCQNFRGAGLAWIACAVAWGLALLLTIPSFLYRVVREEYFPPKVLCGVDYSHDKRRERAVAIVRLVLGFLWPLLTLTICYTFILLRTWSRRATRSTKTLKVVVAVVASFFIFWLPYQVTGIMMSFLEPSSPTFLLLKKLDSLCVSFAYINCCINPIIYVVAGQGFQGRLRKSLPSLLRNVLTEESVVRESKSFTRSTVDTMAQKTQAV
In words: Inhibition of radiolabeled C5a binding to its membrane bound C5a anaphylatoxin chemotactic receptor.

Assay [2] has as its target T1, C5a anaphylatoxin chemotactic receptor 1 (Homo sapiens). Put plainly: Nonspecific degranulation of polymorho neutrophils as measured by myeloperoxidase (MPO) release in a whole functional cell assay.

Consider `CC[C@H](C)C[C@H]1CC[C@](O)([C@](C)(O)C(=O)N[C@@H]2C(=O)N3NCCC[C@@H]3C(=O)N(O)[C@@H](C)C(=O)N[C@H](C)C(=O)N3NCCC[C@H]3C(=O)N(O)[C@H](C)C(=O)O[C@H]2C(C)C)O[C@@H]1C`, for which the Activity in assay [1] is greater than 100 µg/mL. In assay [2], this compound came in with a Concentration causing nonspecific degranulation (MPO release) greater than 100 µg/mL. Compound `CC[C@H](C)C[C@H]1CC[C@](O)([C@](C)(O)C(=O)N[C@@H]2C(=O)N3NCCC[C@@H]3C(=O)N(C(C)=O)[C@@H](C)C(=O)NCC(=O)N3NCCC[C@H]3C(=O)N(O)[C@H](C)C(=O)O[C@H]2C(C)C)O[C@@H]1C` gave an Activity in assay [1] of 4 µg/mL. Further, in assay [2], the Concentration causing nonspecific degranulation (MPO release) is 0.3 µg/mL. In the same order, the values of `CC(C)[C@@H]1OC(=O)[C@@H](C)N(O)C(=O)[C@@H]2CCCNN2C(=O)CNC(=O)[C@H](C)N(O)C(=O)[C@H]2CCCNN2C(=O)[C@H]1NC(=O)[C@@](C)(O)CCCc1ccccc1` are greater than 100 µg/mL and 9 µg/mL. On the same counts, the results for `CC[C@H](C)C[C@H]1CC[C@](O)([C@](C)(O)C(=O)N[C@@H]2C(=O)N[C@H](CCCNC(C)=O)C(=O)N(O)[C@@H](C)C(=O)NCC(=O)N3NCCC[C@H]3C(=O)N(O)[C@H](C)C(=O)O[C@H]2C(C)C)O[C@@H]1C` are greater than 100 µg/mL and greater than 50 µg/mL. In assay [1], `CC[C@H](C)C[C@H]1CC[C@](O)([C@](C)(O)C(=O)N[C@@H]2C(=O)N3NCCC[C@@H]3C(=O)N(O)[C@@H](C)C(=O)NCC(=O)N3NCCC[C@H]3C(=O)N(C)[C@H](C)C(=O)O[C@H]2C(C)C)O[C@@H]1C` had an Activity of 5 µg/mL. Further, in assay [2], the Concentration causing nonspecific degranulation (MPO release) amounted to 4 µg/mL. Consider `CCC(C)C[C@H]1CC[C@](O)([C@](C)(O)C(=O)N[C@@H]2C(=O)N3NCCC[C@@H]3C(=O)N(O)[C@@H](C)C(=O)NCC(=O)N3NCCC[C@H]3C(=O)N[C@H](C)C(=O)OC2C)O[C@@H]1C` (single isomer, unassigned), for which the Activity in assay [1] is 2 µg/mL. This compound gave a Concentration causing nonspecific degranulation (MPO release) in assay [2] of 1 µg/mL. On the same counts, the results for `CC[C@H](C)C[C@H]1CC[C@](O)([C@](C)(O)C(=O)N[C@@H]2C(=O)N3[C@H](CCCN3C)C(=O)N(O)[C@@H](C)C(=O)NCC(=O)N3[C@@H](CCCN3C)C(=O)N(O)[C@H](C)C(=O)O[C@H]2C(C)C)O[C@@H]1C` are 11 µg/mL and 10 µg/mL.

`CC[C@H](C)C[C@H]1CC[C@](O)([C@](C)(O)C(=O)N[C@@H]2C(=O)N3NCCC[C@@H]3C(=O)N(CC(=O)OC(C)(C)C)[C@@H](C)C(=O)NCC(=O)N3NCCC[C@H]3C(=O)N(O)[C@H](C)C(=O)O[C@H]2C(C)C)O[C@@H]1C` displayed an Activity in assay [1] of 100 µg/mL. The compound further showed a Concentration causing nonspecific degranulation (MPO release) in assay [2] greater than 50 µg/mL. On the same counts, the results for `CC(O)C(=O)N[C@@H]1C(=O)N2NCCC[C@@H]2C(=O)N(O)[C@@H](C)C(=O)NCC(=O)N2NCCC[C@H]2C(=O)N(O)[C@H](C)C(=O)O[C@H]1C(C)C` (stereo in doubt; 26) are greater than 100 µg/mL and greater than 20 µg/mL. `CC[C@H](C)C[C@H]1CC[C@](O)([C@](C)(O)C(=O)N[C@@H]2C(=O)N3NCCC[C@@H]3C(=O)N(C)[C@@H](C)C(=O)NCC(=O)N3NCCC[C@H]3C(=O)N(O)[C@H](C)C(=O)O[C@H]2C(C)C)O[C@@H]1C` displayed an Activity in assay [1] of 5 µg/mL. In assay [2], this compound showed a Concentration causing nonspecific degranulation (MPO release) of 2 µg/mL. `CC[C@H](C)C[C@H]1CC[C@](O)([C@](C)(O)C(=O)N[C@@H]2C(=O)N3NCCC[C@@H]3C(=O)N(OC)[C@@H](C)C(=O)NCC(=O)N3NCCC[C@H]3C(=O)N(O)[C@H](C)C(=O)O[C@H]2C(C)C)O[C@@H]1C`: the Activity in assay [1] was determined as 5 µg/mL. The same compound registered a Concentration causing nonspecific degranulation (MPO release) in assay [2] of 0.3 µg/mL. `CC[C@H](C)C[C@H]1CC[C@](O)([C@](C)(O)C(=O)N[C@@H]2C(=O)N[C@H](CCCN)C(=O)N(O)[C@@H](C)C(=O)NCC(=O)N3NCCC[C@H]3C(=O)N(O)[C@H](C)C(=O)O[C@H]2C(C)C)O[C@@H]1C` had an Activity in assay [1] of 60 µg/mL. This compound also returned a Concentration causing nonspecific degranulation (MPO release) in assay [2] greater than 200 µg/mL.

`CC[C@H](C)C[C@H]1CC[C@](O)([C@](C)(O)C(=O)N[C@@H]2C(=O)N3NCCC[C@@H]3C(=O)N(O)[C@@H](C)C(=O)N[C@@H](C)C(=O)N3NCCC[C@H]3C(=O)N(O)[C@H](C)C(=O)O[C@H]2C(C)C)O[C@@H]1C` registered an Activity in assay [1] of 60 µg/mL. As to `CC(C)[C@@H]1OC(=O)[C@@H](C)N(O)C(=O)[C@@H]2CCCNN2C(=O)CNC(=O)[C@H](C)N(O)C(=O)[C@H]2CCCNN2C(=O)[C@H]1NC(=O)[C@](C)(O)CCCc1ccccc1`, the Activity in assay [1] stood at 100 µg/mL. This compound also registered a Concentration causing nonspecific degranulation (MPO release) in assay [2] of 12 µg/mL.

`CC[C@H](C)C[C@H]1CC[C@](O)([C@](C)(O)C(=O)N[C@@H]2C(=O)N3NCCC[C@@H]3C(=O)N(O)[C@@H](C)C(=O)NCC(=O)N3NCCC[C@H]3C(=O)N(OC)[C@H](C)C(=O)O[C@H]2C(C)C)O[C@@H]1C` came in with an Activity in assay [1] of 2 µg/mL. The Concentration causing nonspecific degranulation (MPO release) in assay [2] stood at 2 µg/mL.

Take `CC[C@H](C)C[C@H]1CC[C@](O)([C@](C)(O)C(=O)N[C@@H]2C(=O)N3CCCC[C@@H]3C(=O)N(O)[C@@H](C)C(=O)NCC(=O)N3NCCC[C@H]3C(=O)N(O)[C@H](C)C(=O)O[C@H]2C(C)C)O[C@@H]1C`: the Activity in assay [1] worked out at 75 µg/mL. The compound also gave a Concentration causing nonspecific degranulation (MPO release) in assay [2] of 20 µg/mL. On the same counts, the results for `CC[C@H](C)C[C@H]1CC[C@](O)([C@](C)(O)C(=O)N[C@@H]2C(=O)N3NCCC[C@@H]3C(=O)N(OCc3ccccc3)[C@@H](C)C(=O)NCC(=O)N3NCCC[C@H]3C(=O)N(O)[C@H](C)C(=O)O[C@H]2C(C)C)O[C@@H]1C` are 4 µg/mL and 0.6 µg/mL. `CC(=O)C(=O)N[C@@H]1C(=O)N2NCCC[C@@H]2C(=O)N(O)[C@@H](C)C(=O)NCC(=O)N2NCCC[C@H]2C(=O)N(O)[C@H](C)C(=O)O[C@H]1C(C)C` yielded an Activity in assay [1] greater than 100 µg/mL. In addition, the Concentration causing nonspecific degranulation (MPO release) in assay [2] is greater than 13 µg/mL. In assay [1], `CC[C@H](C)C[C@H]1CC[C@](O)([C@](C)(O)C(=O)N[C@@H]2C(=O)N3NCCC[C@@H]3C(=O)N[C@@H](C)C(=O)NCC(=O)N3NCCC[C@H]3C(=O)N(O)[C@H](C)C(=O)O[C@H]2C(C)C)O[C@@H]1C` displayed an Activity greater than 100 µg/mL. On to `CCC(C)C[C@H]1CC[C@H]([C@](C)(O)C(=O)N[C@@H]2C(=O)N3NCCC[C@@H]3C(=O)N(O)[C@@H](C)C(=O)NCC(=O)N3NCCC[C@H]3C(=O)N(O)[C@H](C)C(=O)O[C@H]2C(C)C)O[C@@H]1C` (single isomer, unassigned), for which the Activity in assay [1] was determined as 3.6 µg/mL. Also, the Concentration causing nonspecific degranulation (MPO release) in assay [2] stood at 0.3 µg/mL.

For the compound `CC[C@H](C)C[C@H]1CC[C@](O)([C@](C)(O)C(=O)N[C@@H]2C(=O)N3NCCC[C@@H]3C(=O)N(O)[C@@H](C)C(=O)NCC(=O)N3NCCC[C@H]3C(=O)N[C@H](C)C(=O)O[C@H]2C(C)C)O[C@@H]1C`, the Activity in assay [1] was found to be 21 µg/mL. This compound also displayed a Concentration causing nonspecific degranulation (MPO release) in assay [2] of 7 µg/mL. On the same counts, the results for `CC[C@H](C)C[C@H]1CC[C@](O)([C@](C)(O)C(=O)N[C@@H]2C(=O)N3NCCC[C@@H]3C(=O)N(OC)[C@@H](C)C(=O)NCC(=O)N3NCCC[C@H]3C(=O)N(OC)[C@H](C)C(=O)O[C@H]2C(C)C)O[C@@H]1C` are 6 µg/mL and 3 µg/mL. In the same order, the values of `CCC(C)C[C@H]1CC[C@](O)([C@](C)(O)C(=O)N[C@@H]2C(=O)N3NCCC[C@@H]3C(=O)N[C@@H](C)C(=O)NCC(=O)N3NCCC[C@H]3C(=O)N[C@H](C)C(=O)O[C@H]2C(C)C)O[C@@H]1C` (single isomer, unassigned) are 40 µg/mL and greater than 50 µg/mL.

`CCC(C)C[C@H]1CC[C@](O)([C@](C)(O)C(=O)N[C@H]2COC(=O)[C@@H](C)NC(=O)[C@@H]3CCCNN3C(=O)CNC(=O)[C@H](C)N(O)C(=O)[C@H]3CCCNN3C2=O)O[C@@H]1C` (single isomer, unassigned) yielded an Activity in assay [1] greater than 100 µg/mL. The compound also returned a Concentration causing nonspecific degranulation (MPO release) in assay [2] of 26 µg/mL. In assay [1], `CC[C@H](C)C[C@H]1CC[C@](O)([C@](C)(O)C(=O)N[C@@H]2C(=O)N3NCCC[C@@H]3C(=O)N(OC)[C@@H](C)C(=O)NCC(=O)N3NCCC[C@H]3C(=O)N(C)[C@H](C)C(=O)O[C@H]2C(C)C)O[C@@H]1C` registered an Activity of 7 µg/mL. The Concentration causing nonspecific degranulation (MPO release) in assay [2] was 20 µg/mL.

Regarding `CC[C@@H](C)CC1CCC(O)([C@](C)(O)C(=O)NC2C(=O)N3NCCC[C@@H]3C(=O)N(O)[C@@H](C)C(=O)NCCC(=O)N3NCCC[C@H]3C(=O)N(O)[C@H](C)C(=O)O[C@H]2C(C)C)OC1C` (some centres undefined), the Activity in assay [1] is greater than 100 µg/mL. The same compound showed a Concentration causing nonspecific degranulation (MPO release) in assay [2] greater than 50 µg/mL. Consider `CC(O)C(=O)N[C@@H]1C(=O)N2NCCC[C@@H]2C(=O)N(O)[C@@H](C)C(=O)NCC(=O)N2NCCC[C@H]2C(=O)N(O)[C@H](C)C(=O)O[C@H]1C(C)C` (stereo in doubt; 25), for which, in assay [1], the Activity is 23 µg/mL. The Concentration causing nonspecific degranulation (MPO release) in assay [2] is 23 µg/mL.

`CC[C@H](C)C[C@H]1CC[C@](O)([C@](C)(O)C(=O)N[C@@H]2C(=O)N3NCCC[C@@H]3C(=O)N(OCc3ccccc3)[C@@H](C)C(=O)NCC(=O)N3NCCC[C@H]3C(=O)N[C@H](C)C(=O)O[C@H]2C(C)C)O[C@@H]1C` showed an Activity in assay [1] greater than 100 µg/mL. Also, in assay [2], the Concentration causing nonspecific degranulation (MPO release) is 18 µg/mL.
